Patent US20240025906A1 (NEURON23, INC., priority 2022, published 2024)
Like-named read-outs stand apart in the source and are kept apart here.

Legend:
[1] = tested on: JAK1/TYK2 pSTAT5 (Tyr694/699) in THP-1 cell line; test: IFNa-stimulated JAK1/TYK2 pSTAT5 (Tyr694/699) inhibition cellular assay, AlphaLISA; type: cell-based; conditions: THP-1 cells, IFNa-stimulated, AlphaLISA (Assay B), read-out: Cellular_THP1_IFNa-pSTATS_TYK2
Method: Assay B: JAK1/TYK2 pSTAT5 (Tyr694/699) inhibition IC50 Cellular Assays
To evaluate the inhibition effect of compounds disclosed herein against TYK2, an IFNa-stimulated JAE1/TYK2 pSTAT5 (Tyr694/699) quantification assay was conducted in the THP-1 cell line using an AlphaLISA detection method (PerkinElmer ALSU-PST5). Compounds in DMSO were serially diluted in a 96-well plate (10 mM starting concentration, 6-fold dilutions, 8 concentrations total) prior to dispensing of 8 nL into a 384-well plate using an I.DOT non-contact liquid handler (Dispendix). Cells were collected via centrifugation at 300 ref for 5 min and resuspended in Hanks' Balanced Salt Solution (Gibco 14175-079), and 6 μl containing 2e4 cells was dispensed into each well of the 384-well plate containing test compounds or DMSO alone (final concentrations: 10000, 1666.67, 277.78, 46.30, 7.72, 1.29, 0.21 and 0.04 nM). Cells were then incubated for 1 h at 37° C. with 5% CO2 prior to the addition of 2 μL IFNa (100 ng/mL; PBL Assay Science 11175-1). Following an additional 30 min incubation at 37° C. with 5% CO2, 2 μL of 5× lysis buffer was added to each well using the I.DOT […]. Plates were sealed and incubated at RT for 10 min on a plate shaker set to 400 RPM. Cell lysates were then frozen at −80° C. before subsequent detection of pSTAT5 by AlphaLISA. At the time of the detection assay, cell lysates were thawed for 5 min at room temperature and then on a plate shaker set to 400 RPM for an additional 10 min. Following the manufacturer recommended protocol (Perkin Elmer), 5 μL of acceptor bead master mix was added to each well; plates were then resealed and incubated for 2 min at RT on a plate shaker (400 rpm) prior to an additional 2-h incubation without agitation (protected from light). Donor bead master mix, 5 uL per well, was then added to each well before 2 min of shaking (RT, 400 rpm) and 2-h incubation (RT, no shaking, protected from light). Levels of pSTAT5 protein were then measured as fluorescent signal at 615 nm with an EnVision multimode plate reader (Perkin Elmer). IC50 values were calculated in Dotmatics using the four-parameter logistic curve regression model with bottom fixed to 0 and Hill Slope fixed to −1.

TYK2 JH2 = target: T1, TYK2 JH2 (Homo sapiens, UniProt P29597); test: TYK2 JH2 binding assay (KINOMEscan KdELECT competitive binding); conditions: TYK2 JH2 domain, read-out: Biochemical TYK2_DiscoverX_JH2_BND_Kd
T1 construct: purchased DiscoverX (KINOMEscan KdELECT service); host or cells: E. coli BL21-derived (T7 phage display) or HEK-293
T1 sequence (P29597 589-875 limits assumed): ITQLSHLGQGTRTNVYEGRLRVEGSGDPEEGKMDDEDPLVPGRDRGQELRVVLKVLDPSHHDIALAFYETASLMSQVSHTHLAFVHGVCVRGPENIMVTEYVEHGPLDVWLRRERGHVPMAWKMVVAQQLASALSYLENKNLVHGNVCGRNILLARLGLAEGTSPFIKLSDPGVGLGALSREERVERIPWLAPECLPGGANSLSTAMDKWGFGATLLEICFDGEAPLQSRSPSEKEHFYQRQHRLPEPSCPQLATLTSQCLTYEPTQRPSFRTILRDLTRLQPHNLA
Method: Assay A: TYK2 JH2 Binding Assay
Competitive binding studies using TKY2 JH2-domain fragments were conducted by DiscoverX using the KINOMEscan (KdELECT) platform. Kinase-tagged T7 phage strains were prepared in an E. coli host derived from the BL21 strain. E. coli were grown to log-phase and infected with […] and incubated with shaking at 32° C. until lysis. The lysates were centrifuged and filtered to remove cell debris. The remaining kinases were produced in HEK-293 cells and subsequently tagged with DNA for qPCR detection. Streptavidin-coated magnetic beads were treated with biotinylated small molecule ligands for 30 minutes at room temperature to generate affinity resins for kinase assays. The liganded beads were blocked with excess biotin and washed with blocking buffer (SeaBlock (Pierce), 1% BSA, 0.05% Tween 20, 1 mM DTT) to remove unbound ligand and to reduce non-specific binding. Binding reactions were assembled by combining kinases, liganded affinity beads, and test compounds in 1× binding buffer (20% SeaBlock, 0.17×PBS, 0.05% Tween 20, 6 mM DTT). Test compounds were prepared as 111× stocks in 100% DMSO. Kds were determined using an 11-point 3-fold compound dilution series with three DMSO control points. All compounds for Kd measurements are distributed by acoustic transfer (non-contact dispensing) in 100% DMSO. The compounds were then diluted directly into the assays such that the final concentration of DMSO was 0.9%. All reactions performed in polypropylene 384-well plate. Each was a final volume of 0.02 ml. The assay plates were incubated at room temperature with shaking for 1 hour and the affinity beads were washed with wash buffer (1×PBS, 0.05% Tween 20). The beads were then re-suspended in elution buffer (1×PBS, 0.05% Tween 20, 0.5 μM non-biotinylated affinity ligand) and incubated at room temperature with shaking for 30 minutes. The kinase concentration in the eluates was measured by qPCR.

[2] = DiscoverX KINOMEscan KdELECT (Assay A)

Row | Structure (SMILES) | IC50 ([1]; Homo sapiens) [µM] | Kd (TYK2 JH2; [2]) [µM] | IC50 [1] [µM] | Kd (TYK2 JH2; KINOMEscan KdELECT (Assay A)) [µM]
1 | CNc1ncc(/C=C/c2ccc3c(c2)OCC(COC)O3)c2cc(NC(=O)C3CC3)ncc12 (racemic) [Example 789, (E)-N-(5-(2-(2-(methoxymethyl)-2,3-dihydrobenzo[b][1,4]dioxin-6-yl)vinyl)-8-(methylamino)-2,7-naphthyridin-3-yl)cyclopropanecarboxamide] | ≤ 0.5 |  |  | ≤ 0.1
2 | CNc1ncc(-c2nc3cc(OC)ccc3o2)c2cc(NC(=O)[C@@H]3C[C@@H]3CF)ncc12 (single isomer, unassigned) [Example 400] | ≤ 0.5 | ≤ 0.1 |  | 
3 | CNc1ncc(-c2nc3cc(OC)ccc3o2)c2cc(NC(=O)[C@H]3C[C@H]3CF)ncc12 (single isomer, unassigned) [Example 401] | ≤ 0.5 | ≤ 0.1 |  | 
4 | CNc1ncc(-c2nc3cc(N4CCO[C@@H](C)C4)ccc3o2)c2cc(NC(=O)[C@H]3C[C@H]3C(F)F)ncc12 (single isomer, unassigned) [Example 414] | ≤ 0.5 | ≤ 0.1 |  | 
5 | CNc1ncc(-c2nc3cc(N4CCO[C@@H](C)C4)ccc3o2)c2cc(NC(=O)[C@@H]3C[C@@H]3C(F)F)ncc12 (single isomer, unassigned) [Example 415] | ≤ 0.5 | ≤ 0.1 |  | 
6 | [2H]C([2H])([2H])Nc1ncc(-c2nc3cc(OC)ccc3o2)c2cc(NC(=O)[C@@H]3C[C@@H]3C)ncc12 (single isomer, unassigned) [Example 437] | ≤ 0.5 | ≤ 0.1 |  | 
7 | [2H]C([2H])([2H])Nc1ncc(-c2nc3cc(OC)ccc3o2)c2cc(NC(=O)[C@H]3C[C@H]3C)ncc12 (single isomer, unassigned) [Example 438] |  | ≤ 0.1 | ≤ 0.5 | 
8 | CNc1ncc(-c2nc3cc(N4CCOCC4)ccc3o2)c2cc(NC(=O)[C@H]3C[C@H]3CF)ncc12 (single isomer, unassigned) [Example 451] | ≤ 0.5 | ≤ 0.1 |  | 
9 | CNc1ncc(-c2nc3cc(N4CCOCC4)ccc3o2)c2cc(NC(=O)[C@@H]3C[C@@H]3CF)ncc12 (single isomer, unassigned) [Example 452] | ≤ 0.5 | ≤ 0.1 |  | 
10 | CNc1ncc(-c2nc3cc(OC)ccc3o2)c2cc(NC(=O)[C@H]3C[C@H]3CO)ncc12 (single isomer, unassigned) [Example 467] | ≤ 0.5 | ≤ 0.1 |  | 
11 | CNc1ncc(-c2nc3cc(OC)ccc3o2)c2cc(NC(=O)[C@@H]3C[C@@H]3CO)ncc12 (single isomer, unassigned) [Example 468] | ≤ 0.5 | ≤ 0.1 |  | 
12 | CC[C@@H]1C[C@H]1C(=O)Nc1cc2c(-c3nc4ccc(OC)cn4n3)cnc(NC)c2cn1 (single isomer, unassigned) [Example 522] | ≤ 0.5 | ≤ 0.1 |  | 
13 | CNc1ncc(-c2nc3ccc(N4CCOCC4)cn3n2)c2cc(NC(=O)[C@@H](C)F)ncc12 (single isomer, unassigned) [Example 532] | ≤ 0.5 | ≤ 0.1 |  | 
14 | CNc1ncc(-c2nc3ccc(N4CCOCC4)cn3n2)c2cc(NC(=O)[C@H](C)F)ncc12 (single isomer, unassigned) [Example 533] | > 0.5 | ≤ 0.1 |  | 
15 | CNc1ncc(-c2nc3ccc(N4CCOCC4)cn3n2)c2cc(NC(=O)[C@H]3C[C@H]3C(F)F)ncc12 (single isomer, unassigned) [Example 534] | ≤ 0.5 | ≤ 0.1 |  | 
16 | CNc1ncc(-c2nc3ccc(N4CCOCC4)cn3n2)c2cc(NC(=O)[C@@H]3C[C@@H]3C(F)F)ncc12 (single isomer, unassigned) [Example 535] | ≤ 0.5 | ≤ 0.1 |  | 
17 | CNc1ncc(-c2nc3ccc(N4CCO[C@@H](C)C4)cn3n2)c2cc(NC(=O)[C@H]3C[C@H]3C(F)(F)F)ncc12 (single isomer, unassigned) [Example 541] | ≤ 0.5 | ≤ 0.1 |  | 
18 | CNc1ncc(-c2nc3ccc(N4CCO[C@@H](C)C4)cn3n2)c2cc(NC(=O)[C@@H]3C[C@@H]3C(F)(F)F)ncc12 (single isomer, unassigned) [Example 542] | ≤ 0.5 | ≤ 0.1 |  | 
19 | [2H]C([2H])([2H])Nc1ncc(-c2nc3ccc(N4CCO[C@@H](C)C4)cn3n2)c2cc(NC(=O)[C@H]3C[C@H]3C(F)F)ncc12 (single isomer, unassigned) [Example 574] | ≤ 0.5 | ≤ 0.1 |  | 
20 | CC[C@H]1C[C@@H]1C(=O)Nc1cc2c(-c3nc4ccc(N5CCOCC5)cn4n3)cnc(NC)c2cn1 (single isomer, unassigned) [Example 585] | ≤ 0.5 | ≤ 0.1 |  | 

Results, then the molecule that gave them:

Row | IC50 ([1]; Homo sapiens) [µM] | Kd (TYK2 JH2; [2]) [µM] | IC50 [1] [µM] | Kd (TYK2 JH2; KINOMEscan KdELECT (Assay A)) [µM] | Structure (SMILES)
21 | ≤ 0.5 | ≤ 0.1 |  |  | [2H]C([2H])([2H])Nc1ncc(-c2nc3ccccn3n2)c2cc(NC(=O)C3CC3F)ncc12 (racemic) [Example 564, N-(5-([1,2,4]triazolo[1,5-a]pyridin-2-yl)-8-((methyl-d3)amino)-2,7-naphthyridin-3-yl)-2-fluorocyclopropane-1-carboxamide]
22 |  | ≤ 0.1 | ≤ 0.5 |  | [2H]C([2H])([2H])Nc1ncc(-c2nc3ccccn3n2)c2cc(NC(=O)C3CC3F)ncc12 (racemic) [Example 565, N-(5-([1,2,4]triazolo[1,5-a]pyridin-2-yl)-8-((methyl-d3)amino)-2,7-naphthyridin-3-yl)-2-fluorocyclopropane-1-carboxamide]
23 | ≤ 0.5 | ≤ 0.1 |  |  | CNc1ncc(-c2nc3cc(C4CCN([C@@]5(C)COC[C@H]5O)CC4)ccc3o2)c2cc(NC(=O)C3CC3)ncc12 (single isomer, unassigned) [Example 261]
24 | ≤ 0.5 | ≤ 0.1 |  |  | CNc1ncc(-c2nc3cc(C4CCN([C@]5(C)COC[C@@H]5O)CC4)ccc3o2)c2cc(NC(=O)C3CC3)ncc12 (single isomer, unassigned) [Example 262]
25 | ≤ 0.5 | ≤ 0.1 |  |  | CNc1ncc(-c2nc3cc(N4CCO[C@H](C(C)(F)F)C4)ccc3o2)c2cc(NC(=O)C3CC3)ncc12 (single isomer, unassigned) [Example 331]
26 | ≤ 0.5 | ≤ 0.1 |  |  | CNc1ncc(-c2nc3cc(N4CCO[C@@H](C(C)(F)F)C4)ccc3o2)c2cc(NC(=O)C3CC3)ncc12 (single isomer, unassigned) [Example 332]
27 | ≤ 0.5 | ≤ 0.1 |  |  | CNc1ncc(-c2nc3cc(OC)ccc3o2)c2cc(NC(=O)[C@@H]3C[C@@H]3C(F)F)ncc12 (single isomer, unassigned) [Example 394]
28 | ≤ 0.5 | ≤ 0.1 |  |  | CNc1ncc(-c2nc3cc(OC)ccc3o2)c2cc(NC(=O)[C@@H]3C[C@@H]3C(F)(F)F)ncc12 (single isomer, unassigned) [Example 397]
29 | > 0.5 | ≤ 0.1 |  |  | CNc1ncc(-c2nc3cc(OC)ccc3o2)c2cc(NC(=O)[C@H]3C[C@H]3C(F)(F)F)ncc12 (single isomer, unassigned) [Example 398]
